Source: patent US4591552A, “Detection of hepatitis B surface antigen (or antibody to same) with labeled synthetic peptide” (priority 1982, dated 1986)

Test system: antiserum to the synthetic peptide
Test: Competition immunoassay: binding to Staphylococci (protein A) of β-galactosidase-conjugated peptide 135-155 complexed with homologous antibodies
Design: species or system rabbit
Conditions: control antigens
Method: It is known that immunoglobulins of the IgG class attach to Staphylococci carrying protein A. If the immunoglobulins are bound to labeled antigens thus forming immune complexes, such (labeled) complexes attach to the Staphylococci. […] The above forms the basis of the following test:
250 μl of mixtures containing various unlabeled antigens, 1:125 diluted antiserum to the synthetic peptide (see Example 3 above), 1:8,000 diluted peptide-β-galactosidase conjugate (see Example 2 above) and 50 mg/ml of bovine serum albumin (BSA) were each incubated for 30 minutes at 37° C. and mixed with an equal volume of a 2.5% suspension of Staphylococci (Pansorbin, Calbiochem, LaJolla, Calif.). The bacteria were pelleted, washed with tris-buffered saline, and the adsorbed β-galactosidase corresponding to the enzyme-peptide conjugate was determined fluorometrically as described by Neurrath and Strick, J. Virol. Methods, supra. The fluorescence in the absence of unlabeled competing antigens was 900.

synthetic insulin A chain: control antigen
inhibitory effect on binding of β-galactosidase activity to the bacteria: did not have any inhibitory effect
